Laboratory results as given in patent publication US20050032873A1, “3-Amino chroman and 2-amino tetralin derivatives” (Wyeth, priority 2003, published 2005).
Where two headings read alike, the source gives them in different places.

Assays:
[1] = molecular target: T1, cloned human 5-HT1A receptors (Homo sapiens, UniProt P08908); assay: 35S-GTPγS binding assay, 5-HT1A function; type: biochemical; details: for IC50: antagonist potency, reversal of 8-OH-DPAT, read-out: 5-HT1A Function GTPγS IC50; for EC50: agonist potency
T1 construct: expressed in transfected cells
T1 sequence (P08908 1-422): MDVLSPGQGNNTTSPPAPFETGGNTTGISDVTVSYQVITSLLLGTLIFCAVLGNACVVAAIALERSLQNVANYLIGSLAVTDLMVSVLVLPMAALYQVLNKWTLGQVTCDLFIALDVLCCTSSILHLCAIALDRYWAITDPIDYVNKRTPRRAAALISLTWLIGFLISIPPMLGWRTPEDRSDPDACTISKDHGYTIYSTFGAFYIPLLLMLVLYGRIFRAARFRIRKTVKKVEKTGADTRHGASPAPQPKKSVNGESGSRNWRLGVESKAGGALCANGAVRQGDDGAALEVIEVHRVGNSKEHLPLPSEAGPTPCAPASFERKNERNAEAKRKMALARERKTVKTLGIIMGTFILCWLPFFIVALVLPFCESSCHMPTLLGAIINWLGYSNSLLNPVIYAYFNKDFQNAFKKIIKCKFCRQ

5-HT1A receptor [2] = molecular target: T2, 5-HT1A receptor (Homo sapiens, UniProt P08908); assay: 5-HT1A receptor affinity: displacement of [3H] 8-OH-DPAT; type: binding; parameters: expressed in transfected cells; details: displacement of [3H] 8-OH-DPAT; CHO cells stably transfected with human 5-HT1A receptors; read-out: 5-HT1A Receptor Affinity Ki
T2 sequence (P08908 1-422): T1 sequence (P08908 1-422)

serotonin transporter = molecular target: T3, serotonin transporter (Rattus norvegicus, UniProt P31652); assay: 5-HT transporter affinity: displacement of 3H-paroxetine from male rat cortical membranes; type: binding; details: displacement of 3H-paroxetine; male rat cortical membranes; read-out: 5-HT Transporter Affinity Ki
T3 construct: displace ^3H-paroxetine from male rat cortical membranes; from tissue; host or cells: male rat cortical membranes

5-HT1A receptor [3] = molecular target: T2, 5-HT1A receptor; assay: cAMP accumulation assay, 5-HT1A function; type: cell-based; details: for IC50: cells marked IC50 (antagonist), read-out: 5-HT1A Function cAMP IC50; for Emax / 5-HT1A Function cAMP (Emax): in brackets after EC50 or IC50; for Emax: read-out: 5-HT1A Function cAMP (Emax); for EC50: cells marked EC50 (agonist)
[4] = maximum inhibitory effect, in brackets after IC50, read-out: 5-HT1A Function GTPγS (Imax)
[5] = maximum stimulatory effect, in brackets after EC50, read-out: 5-HT1A Function GTPγS (Emax)

T3 sequence (P31652 whole entry): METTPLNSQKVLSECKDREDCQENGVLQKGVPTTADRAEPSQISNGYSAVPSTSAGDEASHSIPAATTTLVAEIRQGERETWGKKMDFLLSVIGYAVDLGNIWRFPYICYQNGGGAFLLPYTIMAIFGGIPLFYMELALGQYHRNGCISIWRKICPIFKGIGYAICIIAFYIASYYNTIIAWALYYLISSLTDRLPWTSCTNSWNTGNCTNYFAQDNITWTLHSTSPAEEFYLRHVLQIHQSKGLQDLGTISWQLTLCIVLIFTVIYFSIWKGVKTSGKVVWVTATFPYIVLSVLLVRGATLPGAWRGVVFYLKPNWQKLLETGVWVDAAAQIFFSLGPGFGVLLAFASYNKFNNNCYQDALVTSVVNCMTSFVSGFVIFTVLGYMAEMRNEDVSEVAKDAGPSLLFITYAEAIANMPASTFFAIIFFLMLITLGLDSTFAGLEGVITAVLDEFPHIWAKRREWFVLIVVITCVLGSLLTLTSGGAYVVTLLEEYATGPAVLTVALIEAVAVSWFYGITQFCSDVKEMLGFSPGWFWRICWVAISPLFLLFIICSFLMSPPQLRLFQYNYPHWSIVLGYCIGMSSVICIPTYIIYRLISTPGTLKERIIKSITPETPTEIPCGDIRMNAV

Compound | IC50 [1] [nM] | Emax [1, 4] [%] | Ki (5-HT1A receptor [2]) [nM] | Ki (serotonin transporter) [nM] | IC50 (5-HT1A receptor [3]) [nM] | Emax (5-HT1A receptor [3]) [%] | 5-HT1A Function GTPγS (Imax) ([1]; maximum inhibitory effect, in brackets after IC50) [%] | 5-HT1A Function cAMP (Emax) (5-HT1A receptor [3]) [%] | EC50 [1] [nM] | Emax [1, 5] [%] | EC50 (5-HT1A receptor [3]) [nM]
CCNC(=O)c1ccc(F)c2c1CC(N(CCCc1c[nH]c3ccc(F)cc13)C1CCC1)CO2 (centres unmarked) [Compound 60, 3-{cyclobutyl[3-(5-fluoro-1H-indol-3-yl)propyl]amino}-N-ethyl-8-fluorochromane-5-carboxamide] | 1400 | 100 | 17.8 | 4.86 | 116 | 0 |  |  |  |  | 
NC(=O)c1ccc(Cl)c2c1CC(N(CCCc1c[nH]c3ccc(F)cc13)C1CCC1)CO2 (centres unmarked) [Compound 7, 8-chloro-3-{cyclobutyl[3-(5-fluoro-1H-indol-3-yl)propyl]amino}chromane-5-carboxamide] | 1650 | 100 | 6.21 | 3.2 | 59.7 | 0 |  |  |  |  | 
N#Cc1ccc2[nH]cc(CCCN(CC3CC3)[C@H]3COc4c(F)ccc(C(N)=O)c4C3)c2c1 [Compound 98b, (3R)-3-[[3-(5-cyano-1H-indol-3-yl)propyl](cyclopropylmethyl)amino]-8-fluorochromane-5-carboxamide] | 456 | 99 | 6.8 | 5.5 | 162 | 0 |  |  |  |  | 
NC(=O)c1ccc(F)c2c1CC(N(CCCc1c[nH]c3c(F)cc(F)cc13)C1CCC1)CO2 (single isomer, unassigned; (-)) [Compound 9a, (−)-3-{cyclobutyl[3-(5,7-difluoro-1H-indol-3-yl)propyl]amino}-8-fluorochromane-5-carboxamide] | 207 |  | 1.73 | 3.34 | 61.1 | 0 | 100 |  |  |  | 
CCN(C(C)CCc1c[nH]c2ccc(F)cc12)C1COc2c(F)ccc(C(N)=O)c2C1 (single isomer, unassigned; (-)) [Compound 16a, (−)-3-{ethyl[3-(5-fluoro-1H-indol-3-yl)-1-methylpropyl]amino}-8-fluorochromane-5-carboxamide] | 3000 | 100 | 37.3 | 0.9 | 187 |  |  | 0 |  |  | 
CCCN(CCC(O)c1csc2ccc(F)cc12)C1COc2c(F)ccc(C(N)=O)c2C1 (centres unmarked) [Compound 17, 8-fluoro-3-[[3-(5-fluoro-1-benzothien-3-yl)-3-hydroxypropyl](propyl)amino]chromane-5-carboxamide] |  |  | 0.88 | 159 |  | 74.5 |  |  | 93.3 | 42 | 76.2
NC(=O)c1ccc(F)c2c1CC(N(CC1CCc3[nH]c4ccc(F)cc4c3C1)C1CCC1)CO2 (single isomer, unassigned; (+)) [Compound 174c, (+)-3-{cyclobutyl[(6-fluoro-2,3,4,9-tetrahydro-1H-carbazol-3-yl)methyl]amino}-8-fluorochromane-5-carboxamide] |  |  | 185 | 1100 | 607 |  |  | 0 | 978 | 55 | 
CCCN(CCCc1c[nH]c2ccc(F)cc12)C1CCc2cccc(OC)c2C1 (centres unmarked) [Compound 47, N-[3-(5-fluoro-1H-indol-3-yl)propyl]-N-(8-methoxy-1,2,3,4-tetrahydronaphthalen-2-yl)-N-propylamine] |  |  | 4.12 | 2.16 |  | 91.5 |  |  | 10.4 | 100 | 3.5
COc1cccc2c(CCCCN(CC3CC3)C3COc4c(F)ccc(C(N)=O)c4C3)coc12 (centres unmarked) [Compound 170, 3-{(cyclopropylmethyl)[4-(7-methoxy-1-benzofuran-3-yl)butyl]amino}-8-fluorochromane-5-carboxamide] | 158 | 100 | 0.72 | 457 | 103 | 0 |  |  |  |  | 
CCN(CCCCn1ccc2cccc(F)c21)C1COc2c(F)ccc(C(N)=O)c2C1 (centres unmarked) [Compound 189, 3-{Ethyl[4-(7-fluoro-1H-indol-1-yl)butyl]amino}-8-fluorochromane-5-carboxamide] | 233 | 100 | 37.4 | 27.1 |  | 77.5 |  |  |  |  | 286
CCN(CCCCc1c[nH]c2ccc(F)cc12)C1COc2c(F)ccc(C(N)=O)c2C1 (centres unmarked) [Compound 80, 3-{ethyl[4-(5-fluoro-1H-indol-3-yl)butyl]amino}-8-fluorochromane-5-carboxamide] | 1000 | 100 | 312 | 0.15 | 1370 | 0 |  |  |  |  | 
CCCN(CCCc1c[nH]c2ccc(F)cc12)[C@H]1CCc2cccc(OC)c2C1 [Compound 47a, (−)-N-[3-(5-fluoro-1H-indol-3-yl)propyl]-8-methoxy-N-propyl-1,2,3,4-tetrahydronaphthalen-2-amine] |  |  | 1.55 | 0.83 |  | 99 |  |  | 5.6 | 80.5 | 7.61
CNC(=O)c1ccc(F)c2c1C[C@@H](N(CCCCc1c[nH]c3ccc(F)cc13)C1CCC1)CO2 [Compound 145b, (3R)-3-{cyclobutyl[4-(5-fluoro-1H-indol-3-yl)butyl]amino}-8-fluoro-N-methylchromane-5-carboxamide] | 1270 | 100 | 6.29 | 8.63 | 848 | 0 |  |  |  |  | 
COc1cccc2c1CC(N(CCCc1c[nH]c3ccc(F)cc13)C1CCC1)CO2 (centres unmarked) [Compound 34, N-cyclobutyl-N-[3-(5-fluoro-1H-indol-3-yl)propyl]-5-methoxychroman-3-amine] | 2130 | 76 | 15.6 | 13 |  | 37 |  |  |  |  | 61.9
CCN(C(C)CCc1c[nH]c2ccc(F)cc12)C1COc2c(F)ccc(C(N)=O)c2C1 (single isomer, unassigned; (+)) [Compound 16b, (+)-3-{ethyl[3-(5-fluoro-1H-indol-3-yl)-1-methylpropyl]amino}-8-fluorochromane-5-carboxamide] |  |  | 128 | 0.95 |  |  |  | 64.5 | 807 | 20 | 164
COc1cccc2c(CCCN(C3CCC3)C3COc4c(F)ccc(C(N)=O)c4C3)coc12 (centres unmarked) [Compound 164, 3-{cyclobutyl[3-(7-methoxy-1-benzofuran-3-yl)propyl]amino}-8-fluorochromane-5-carboxamide] | 446 | 100 | 11.9 | 428 | 116 | 0 |  |  |  |  | 
CNC(=O)c1ccc(F)c2c1CC(N(CCCc1c[nH]c3ccc(F)cc13)C1CCC1)CO2 (centres unmarked) [Compound 59, 3-{cyclobutyl[3-(5-fluoro-1H-indol-3-yl)propyl]amino}-8-fluoro-N-methylchromane-5-carboxamide] | 812 | 100 | 5.35 | 5.05 | 166 | 0 |  |  |  |  | 
COc1cccc2c(CCCN(CC3CC3)C3COc4c(F)ccc(C(N)=O)c4C3)coc12 (centres unmarked) [Compound 165, 3-{(cyclopropylmethyl)[3-(7-methoxy-1-benzofuran-3-yl)propyl]amino}-8-fluorochromane-5-carboxamide] | 116 | 91 | 1.06 | 913 | 52.3 | 0 |  |  | 211 | 22 | 
NC(=O)c1ccc(F)c2c1C[C@@H](N(CC1CC1)CC1CCc3[nH]c4ccc(F)cc4c3C1)CO2 (single isomer, unassigned; (-)) [Compound 178a] | 8400 | 100 | 117 | 347 | 1260 | 0 |  |  |  |  | 
CCCN(CCCCc1c[nH]c2ccc(F)cc12)C1COc2c(F)ccc(C(=O)NC)c2C1 (centres unmarked) [Compound 93, 8-fluoro-3-[[4-(5-fluoro-1H-indol-3-yl)butyl](propyl)amino]-N-methylchromane-5-carboxamide] | 304 | 100 | 7.67 | 2.49 | 228 | 0 |  |  |  |  | 
COc1cccc2c1CC(N(CCCc1c[nH]c3ccc(F)cc13)C1CC1)CO2 (centres unmarked) [Compound 41, N-cyclopropyl-N-[3-(5-fluoro-1H-indol-3-yl)propyl]-N-(5-methoxy-3,4-dihydro-2H-chromen-3-yl)amine] |  |  | 57.3 | 148 |  | 78.5 |  |  | 3460 | 84 | 162
